The test system of test [1] is α-DNP antibody. Nature of the test: In vivo serum levels of α-DNP antibody, ELISA. Particulars: FIG. 8D; single variable dose; mice. The protocol:
In vivo experiments were performed under Yale University IACUC supervision following protocol entitled “pre-clinical evaluation of small molecule immunomodulators” (Protocol number 2017-11445). Experiments were performed in male nude mice purchased from Jackson Laboratory (NU/J, Stock No. 002019). Compounds were administered i.p. in a volume of 100 μL PBS. Approximately 25 μL of blood was collected at each time point by saphenous bleed. Antibody was administered as 40 μg in 100 μL i.p. Compounds were administered daily at the specified dose throughout the course of experiments. For data analysis, antibody levels were normalized to the recorded concentration of antibody observed in each mouse 24 hours after the i.p. administration.
ELISA analysis of serum samples was performed using MaxiSorp 96 well plates (Thermo, 44-2404-21). Plates were coated with 50 μL of BSA-DNP (Invitrogen, A23018) at 100 ug/mL in PBS and incubated at 4° C. overnight. Coating solution was then removed, and the plates were blocked with 2% BSA in PBS for 2 hours at room temperature, followed by washing twice with PBST (0.2% Tween). Serum samples were diluted in 2% BSA in PBS. […] The plates were then treated with TMB (Thermo 34028) followed by 2 M H2SO4 and analyzed for OD at 450 nm on a plate reader (BioTek Synergy 2). Sample concentrations were determined against a standard curve.

Test [2] has as its system α-DNP antibody. Nature of the test: Ternary complex formation between hepatocytes and α-DNP antibody. In kind it is cell-based. Particulars: FIG. 6B; competitive binders of ASGPR or α-DNP antibody.

One molecule from patent US12234256B2, “Molecular degraders of extracellular proteins” (priority 2021, dated 2025) can be followed below.

For `CC(=O)N[C@H]1[C@H](OCCOCCOCCNC(=O)CCOCC(COCCC(=O)NCCOCCOCCO[C@@H]2O[C@H](CO)[C@H](O)[C@H](O)[C@H]2NC(C)=O)(COCCC(=O)NCCOCCOCCO[C@@H]2O[C@H](CO)[C@H](O)[C@H](O)[C@H]2NC(C)=O)NC(=O)CNC(=O)COCCOCCOCCNc2ccc([N+](=O)[O-])cc2[N+](=O)[O-])O[C@H](CO)[C@H](O)[C@@H]1O` [D-MoDE-A], the “serum levels of α-DNP antibody” value in the test with α-DNP antibody [1] is reported as “decrease in serum levels of α-DNP antibody”. In the test on α-DNP antibody [2], the “D-MoDE-A-mediated ternary complex formation in presence of competitive binders” value is reported as “inhibited by competitive binders of either ASGPR or α-DNP antibody”.
